{"source": "patent US10800778B2", "about": "(Entasis Therapeutics Limited, priority 2016, dated 2020)", "key": {"[1]": {"assay": "Stability/conversion of esters in rat liver S9", "format": "in vitro ADME", "settings": "s9, pH 7.4, read-out: T1/2 Rat Liver S9", "summary_of_the_method": "(§1)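 Esters at 10 μM incubated at 37 °C with 0.8 mg/mL S9 (human intestinal without PMSF, rat liver or rat intestinal) or no enzyme, in 100 mM HEPES pH 7.4; sampled 0–60 min. LC-MS/MS tracked ester and hydrolysed active; first-order T1/2 from ester disappearance.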"}, "[2]": {"assay": "Stability/conversion of esters in human liver S9", "format": "in vitro ADME", "settings": "s9, pH 7.4, read-out: T1/2 Human Liver S9", "summary_of_the_method": "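Ester test compounds (10 μM) were incubated at 37° C with human liver S9 at 0.8 mg/mL in 100 mM HEPES buffer, pH 7.4. Aliquots taken from 0 to 60 min were quenched in acetonitrile containing carbutamide internal standard, centrifuged, and analyzed by LC-MS/MS MRM; first-order half-lives came from loss of the parent ester.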"}, "[3]": {"assay": "Rat PK, intravenous and oral", "format": "in vivo, Sprague-Dawley rats", "settings": "rat plasma, LC/MS/MS", "description": "Intravenous rat pharmacokinetics of exemplar compounds were determined in jugular vein cannulated Sprague-Dawley rats (n=3) (Harlan Laboratories, Indianapolis, Ind.) at a dose of 10 mg/kg. Compounds were dissolved and administered intravenously in 0.9% saline, pH 6.5 at a dose volume of 2 mL/kg. […] Oral pharmacokinetic studies were conducted with exemplar compounds at 10 mg/kg equivalents of carboxylic acids. Doses were dissolved and administered orally in 25:75 PEG400: water for injection, pH 4.5 at a dose volume of 10 mL/kg. […] Plasma samples were stored at −80° C. prior to bioanalysis.\nPlasma samples were thawed on ice prior to processing. Samples (30 μL) were diluted and proteins precipitated with 180 μL of acetonitrile containing 0.1% formic acid and 250 ng/mL of carbutamide (N1-(butylcarbanoyl)-sulfanilamide, Sigma-Aldrich Catalog # S385433) as an internal standard. Samples were vortexed for 30 seconds, centrifuged at 3400 g for 10 minutes and the supernatant transferred to injection vials.\nLC/MS/MS analysis was completed on an AB Sciex QTrap 6500 mass spectrometer in positive ionization mode, coupled to a Schimadzu Nexera LC system. A Waters Atlantis T3 (3 μm, 3.0×50 mm) column was used for chromatographic separation. Injection volume was […] The mobile phase consisted 0.1% formic acid in water (A) and 0.1% formic acid in acetonitrile (B), with a gradient of 2-98% B:A over two minutes.\nPlasma concentration vs. time profiles following intravenous (IV) administration and oral (PO) administration of exemplar compounds were analyzed by non-compartment analysis using WinNonLin 6.4."}, "[4]": {"assay": "Stability in pH 7.4 buffer (no enzyme)", "format": "physicochemical", "settings": "buffer, read-out: T1/2 pH 7.4 Buffer", "summary_of_the_method": "as §1"}, "[5]": {"assay": "Stability/conversion of esters in human intestinal S9", "format": "in vitro ADME", "settings": "s9, pH 7.4, read-out: T1/2 Human Intestinal S9", "summary_of_the_method": "as §1"}, "[6]": {"tested_on": "E. coli ARC2687 (AmpC, CTX-M-14)", "assay": "Mouse neutropenic thigh infection model, oral efficacy of cefpodoxime proxetil with Example 35", "format": "in vivo", "description": "The oral in vivo efficacy of Example 35 was evaluated in combination with cefpodoxime proxetil in a mouse neutropenic thigh infection model versus a relevant clinical isolate. […] CD-1 mice (Charles River, Wilmington US) were housed in shoebox type cages with contact bedding and acclimated to the facility for a minimum of 2 days prior to use. The animal room was maintained at 70° F., with 50+/−10% relative humidity and a 12-hour light/dark cycle. The study was conducted using an IACUC-approved protocol in accordance with Title 9 of the Code of Federal Regulations. Animals were rendered neutropenic with two intraperitoneal doses of cyclophosphamide (150 mg/kg—4 days and 100 mg/kg—1 day prior to infection (Gerber et al. (1983) J Infect Dis 147(5); 910-917)). Animals were infected via an intramuscular challenge of ˜1×10^6 CFU administered within 100 μL of 0.9% saline. The inoculum was prepared from a 25 mL overnight culture of E. coli ARC 2687 in tryptic soy broth media. Following an OD600 determination, the inoculum was diluted in 0.9% saline to a concentration of […] prior to inoculation into the left and right thigh. Oral therapy with cefpodoxime proxetil alone and in combination with Example 35 was initiated 2 hours post bacterial challenge. Doses were suspended in 0.5% HPMC/0.1% Tween 80 and administered by oral gavage at a dose volume of 10 mL/kg. A terminal endpoint was obtained at 24 hr to determine bacterial counts in thigh tissue (CFU/gm). Animals were ethically euthanized, thighs were asceptically removed, weighed and homogenized in 1 mL of saline. Bacterial burden enumeration of tissue homogenate was performed by serial dilution on tryptic soy agar plates which were incubated overnight at 37° C. prior to colony (CFU) counting. The lower limit of detection was ˜2.6 log10 CFU/gm of tissue."}, "[7]": {"assay": "Stability/conversion of esters in rat intestinal S9", "format": "in vitro ADME", "settings": "s9, pH 7.4, read-out: T1/2 Rat Intestinal S9", "summary_of_the_method": "as §1"}, "[8]": {"tested_on": "E. coli ARC2687 (AmpC, CTX-M-14)", "assay": "Mouse neutropenic thigh infection model, oral efficacy of cefpodoxime proxetil with Example 35", "format": "in vivo", "remark": "listed apart in the source"}}}
{"molecule": "CC1=C[C@@H](C(N)=O)N2C[C@@H]1N(O[C@H](F)C(=O)OC(C)C)C2=O", "note": "[Example 35, (2R)-isopropyl 2-(((2S,5R)-2-carbamoyl-4-methyl-7-oxo-1,6-diazabicyclo[3.2.1]oct-3-en-6-yl)oxy)-2-fluoroacetate]", "values": [{"measurement": "half-life at 10 μM", "setting": "[1]", "result": 0.533, "unit": "h"}, {"measurement": "half-life at 10 μM", "setting": "[2]", "result": 0.65, "unit": "h"}, {"measurement": "Circulating concentrations of the ester in plasma", "setting": "[3]", "result": "Rapid hydrolysis precluded satisfactory analysis of circulating concentrations"}, {"measurement": "half-life at 10 μM", "setting": "[4]", "result": 3.1, "unit": "h"}, {"measurement": "half-life at 10 μM", "setting": "[5]", "result": 2.72, "unit": "h"}, {"measurement": "maximal kill relative to initiation of therapy", "setting": "[6]; 50 mg/kg cefpodoxime proxetil + 100 mg/kg Example 35 q6h, oral, 24 hr", "result": "−0.75", "unit": "log10 CFU/gm"}, {"measurement": "log10CFU/gm thigh", "setting": "[6]; Example 35 alone 10 mg/kg PO/q6h, mouse neutropenic thigh, E. coli ARC2687", "result": 9.56, "unit": "log10CFU/gm thigh"}, {"measurement": "CFU Change from 26 hr", "setting": "[6]; Example 35 alone 10 mg/kg PO/q6h, relative to 26 hr growth control", "result": "−1.30", "unit": "log10 CFU/gm"}, {"measurement": "CFU Change from 2 hr", "setting": "[6]; Example 35 alone 10 mg/kg PO/q6h, relative to initiation of therapy", "result": "+3.29 log10 CFU/gm"}, {"measurement": "growth of bacterial burden in thighs after 24 hours of therapy", "setting": "[6]; Example 35 alone at 10 mg/kg q6h, oral, neutropenic CD-1 mice", "result": "greater than 3 log10 CFU/gm"}, {"measurement": "effect of increasing dose on bacterial burden", "setting": "[6]; in combination with cefpodoxime proxetil 50 mg/kg q6h, oral", "result": "dose dependent reduction of bacterial burden"}, {"measurement": "half-life at 10 μM", "setting": "[7]", "result": 4, "unit": "h"}]}
{"molecule": "C[C@@H](O)[C@H]1C(=O)N2C(C(=O)O)=C(S[C@@H]3CN[C@H](C(=O)N(C)C)C3)[C@H](C)[C@H]12", "note": "[Meropenem]", "values": [{"measurement": "reduction in CFU relative to initiation of therapy", "setting": "[8]; 600 mg/kg q6h administered subcutaneously, positive control", "result": "over 1 log10"}, {"measurement": "log10CFU/gm thigh", "setting": "[8]; Meropenem 600 mg/kg SC/q6h, positive control, mouse neutropenic thigh, E. coli ARC2687", "result": 5.17, "unit": "log10CFU/gm thigh"}, {"measurement": "CFU Change from 26 hr", "setting": "[8]; Meropenem 600 mg/kg SC/q6h, relative to 26 hr growth control", "result": "−5.69", "unit": "log10 CFU/gm"}, {"measurement": "CFU Change from 2 hr", "setting": "[8]; Meropenem 600 mg/kg SC/q6h, relative to initiation of therapy", "result": "−1.10", "unit": "log10 CFU/gm"}]}
